{"source": "patent US20070060605A1", "about": "“Compositions and methods for inhibiting platelet activation and thrombosis” (priority 2001, published 2007)", "key": {"[1]": {"test_system": "platelet accumulation into thrombus", "type": "in vivo", "excerpt": "A preferred animal model involves intravital microscopy of laser-induced thrombi. The method is described by Rosen et al., 2001, Am J Pathol 158, 1613-1622, which is incorporated herein by reference. Minor variations of that method were employed as described below.\nExperimental mice are pre-anesthetized and surgically prepared. A tracheal tube is placed to facilitate breathing and the jugular vein is canulated to allow for maintenance of anesthetic and introduction of compound. The cremaster muscle is then exteriorized. The muscle is affixed over a glass slide, allowing illumination from below. A steady drip of a sodium-bicarbonate buffered salt solution is maintained throughout the experiment to keep the exposed muscle moist. Blood flow in the muscle is visualized using a 40× water immersion lens and epi-illuminated with an appropriately filtered light source. Alexa 488-labeled anti-mouse CD41 antibody is injected through the jugular canulus to label platelets in vivo.\nThrombosis is initiated by damaging the vessel wall (of a 30 μm vessel) with a laser pulse from a MicroPoint LASER attached to the microscope. A LASER pulse is delivered, causing damage in an area smaller than 1 μm. The recruitment of platelets to the thrombus is then monitored by the accumulation of (activated) Alexa 488-labeled platelets at the ablation site using fluorescence microscopy, and the process is recorded digitally. The method thus permits in vivo analysis of platelet activation as measured by platelet aggregation and thrombosis.\nThe degree of embolization in an untreated mouse can be quantified using software for image analysis, e.g., BioQuant True Color Windows (Biometrics, Nashville, Tenn.), as described in Rosen et al., 2001, supra. The software package permits the determination of the “integrated optical density” or IOD of the thrombus.\nUsing quantitative intravital fluorescence videomicroscopy with high temporal resolution (111 images/second), the effect of PDE3 inhibition on the platelet recruitment into thrombi was directly observed over time. Platelets were fluorescently labeled by infusing rat-anti-mouse CD41 and Alexa 488-anti-rat IgG through a cannulated jugular vein. The cremaster microvasculature was exposed and mapped and suitable arteriole segments were selected for laser-induced injury. A series of control injuries were generated prior to infusion of the inhibitory compound. The power and the number of laser pulses required to generate each thrombus was recorded. Platelet accumulation to the thrombi following laser ablation was recorded using digital videomicroscopy. The thrombus total fluorescence in each frame of the videos was analyzed using Slidebook software for digital videomicroscopy. The pyridazinone compound was then infused. Following a 15 minute incubation, a series of experimental injuries were generated 250 μm proximal, with relationship to blood flow, of the first injury and the resultant thrombi were recorded. The power and the number of pulses required to induce the control thrombus was used to induce the experimental thrombus. The control and experimental thrombi constituting a pair were compared for statistical analysis. The total fluorescence intensity of the thrombi before and after the infusion of pyridazinone compound was recorded.\nImages from a representative experiment of the recruitment of fluorescently-labeled […] platelets into a growing thrombus over time is shown in FIG. 9A."}, "platelets": {"test_system": "platelets", "experiment": "Platelet aggregation (aggregometer)", "type": "cell-based, human", "settings": "for IC50: Homo sapiens, Platelet", "method": "Platelet aggregation profiling is a standard methodology, generally performed with an instrument adapted for that express purpose, for example, a Platelet Aggregation Profiler (BioData, Horsham, Pa.). The assays can generally be performed according to the instructions of the manufacturer. As exemplary conditions, 400 μl of PRP are incubated with inhibitor for 15 minutes at room temperature. The sample is then incubated for 3 minutes at 37° C. in the Platelet Aggregation Profiler. The instrument is calibrated with platelet poor plasma serving as a blank. A baseline tracing is established by monitoring the light transmittance of PRP being stirred at 1200 rpm. Aggregation is initiated by the addition of SFLLR (200 μM) and the percent of platelet aggregation is measured by the change in light transmittance for 6 minutes following addition of SFLLR."}}, "note": "Where two headings read alike, the source gives them in different places.", "data": [{"smiles": "CC1CC(=O)NN=C1c1ccc(N)c([N+](=O)[O-])c1", "note": "(centres unmarked) [6-(4-Amino-3-nitro-phenyl)-5-methyl-4,5-dihydro-2H-pyridazin-3-one]", "values": [{"measurement": "Inhibition of maximal rate of platelet recruitment", "setting": "[1]; 0.3 mg/kg", "result": 37, "unit": "%"}, {"measurement": "Median Stabilized/Maximum platelet accumulation", "setting": "[1]; 0.3 mg/kg", "result": 36, "unit": "%"}, {"measurement": "Inhibition of maximum platelet accumulation", "setting": "[1]; 0.6 mg/kg", "result": 61, "unit": "%"}, {"measurement": "Median Stabilized/Maximum platelet accumulation", "setting": "[1]; 0.6 mg/kg", "result": 41, "unit": "%"}, {"measurement": "Stabilized platelet accumulation", "setting": "[1]; 0.6 mg/kg (P<0.05) and 1.2 mg/kg (P<0.01)", "result": "dose-dependent inhibition"}, {"measurement": "Maximum platelet accumulation compared to absence of compound", "setting": "[1]; 0.6 mg/kg and 1.2 mg/kg (P<0.05)", "result": "statistically significant decrease"}, {"measurement": "Inhibition of stabilized platelet accumulation", "setting": "[1]; 0.6 mg/kg, 300 seconds after laser injury", "result": 54, "unit": "%"}, {"measurement": "Inhibition of maximal rate of platelet recruitment", "setting": "[1]; 1.2 mg/kg", "result": 56, "unit": "%"}, {"measurement": "Inhibition of maximum platelet accumulation", "setting": "[1]; 1.2 mg/kg", "result": 56, "unit": "%"}, {"measurement": "Median Stabilized/Maximum platelet accumulation", "setting": "[1]; 1.2 mg/kg", "result": 33, "unit": "%"}, {"measurement": "Inhibition of stabilized platelet accumulation", "setting": "[1]; 1.2 mg/kg, 300 seconds after laser injury", "result": 72, "unit": "%"}, {"measurement": "Median total thromboembolization, % of the maximum platelet accumulation of control thrombi", "setting": "[1]; 1.2 mg/kg, p<0.04", "result": 1.0, "unit": "%"}, {"measurement": "Thromboembolization", "setting": "[1]; after infusion of 1.2 mg/kg", "result": "significantly reduced"}, {"measurement": "Reduction of embolization", "setting": "[1]; after injection, laser-induced thrombus", "result": "greater than 80%"}, {"measurement": "Inhibition of thrombus formation", "setting": "[1]; laser-induced thrombosis, P<0.01", "result": 72, "unit": "%"}, {"measurement": "Thromboembolization", "setting": "[1]; same mouse model, dose not stated", "result": "inhibited"}, {"measurement": "SFLLR-induced platelet aggregation", "setting": "platelets; agonist SFLLR", "result": "potent inhibitor"}]}, {"smiles": "CCCCCn1c2c(c(=N)c3ccccc31)CCC2", "note": "[JF081204{5C}]", "values": [{"measurement": "Time for thrombus to achieve 50% maximum platelet accumulation / onset of platelet accumulation", "setting": "[1]; 1 mg/kg (P<0.001), 3 mg/kg (P<0.05), 6 mg/kg (P<0.001)", "result": "statistically significant delay"}, {"measurement": "Platelet accumulation over stages of thrombus formation", "setting": "[1]; 1 mg/kg, 3 mg/kg, and 6 mg/kg", "result": "inhibited at all stages"}, {"measurement": "Median of maximum platelet accumulation compared to absence of compound", "setting": "[1]; 3 mg/kg (P<0.002) and 6 mg/kg (P<0.02)", "result": "statistically significant decrease"}, {"measurement": "Median stabilized platelet accumulation", "setting": "[1]; 3 mg/kg (P<0.01) and 6 mg/kg (P<0.001)", "result": "dose-dependent inhibition"}, {"measurement": "Inhibition of maximum platelet accumulation", "setting": "[1]; dose-dependent, 1-6 mg/kg", "result": "up to 80%"}, {"measurement": "Inhibition of stabilized platelet accumulation", "setting": "[1]; dose-dependent, 5 minutes following laser injury", "result": "up to 75%"}, {"measurement": "IC50", "setting": "platelets; agonist U-46619, read-out: IC50 Platelet Aggregation Induced by U-46619", "result": 400, "unit": "µM"}, {"measurement": "IC50", "setting": "platelets; agonist Collagen, read-out: IC50 Platelet Aggregation Induced by Collagen", "result": "> 200", "unit": "µM"}, {"measurement": "IC50", "setting": "platelets; agonist Epinephrine, read-out: IC50 Platelet Aggregation Induced by Epinephrine", "result": 5, "unit": "µM"}, {"measurement": "IC50", "setting": "platelets; agonist SFLLRN, read-out: IC50 Platelet Aggregation Induced by SFLLRN", "result": 2, "unit": "µM"}, {"measurement": "IC50", "setting": "platelets; agonists SFLLRN, epinephrine, read-out: IC50 SFLLRN- and epinephrine-induced platelet aggregation", "result": "< 5", "unit": "µM"}, {"measurement": "Inhibition of U46619- and collagen-induced platelet aggregation", "setting": "platelets; agonists U46619, collagen", "result": "not effective"}]}]}
